By IC50 is commonly meant the concentration that gives 50% inhibition.

“And” between values parts separate entries of the source, which are not always exact repeats. Equal values may be shown once. Where a name gives a salt, the structure may show the parent alone. Where only a bound is given, the exact number is not on record here.

This is an account of results in US10144732B2 (BIOGEN MA INC., priority 2014, dated 2018).

For the first experiment, the target named is T1, Human ATX protein (Homo sapiens, UniProt Q13822).
T1 construct: made in house
Description: ATX biochemical assay (FRET, FS-3 substrate). As to conditions: FRET assay, FS-3 2 μM, ATX 1.0 μg/mL, 30 minutes preincubation, 2 hours reaction at room temperature; read-out: IC50. The source says:
ATX (Autotaxin) is a 125 KDa glycoprotein with lysophospholipase D (LPLD) activity that generates the bioactive lipid lysophosphatidic acid (LPA) from lysophosphatidylcholine (LPC). The ATX biochemical assay utilizes a FRET (fluorescence resonance energy transfer) technology platform. The fluorescence signal of FRET substrate FS-3 is quenched due to intra-molecular FRET of a fluorophore to a non-fluorescing quencher (Ferguson, C. G., et al., Org Lett. 2006 May 11; 8(10): 2023-2026, which is incorporated by reference in its entirety). ATX catalyzes the hydrolysis of the substrate which separates the dabsyl quencher from the fluorescein reporter, which becomes fluorescent. The reaction is monitored by a SpectraMax M5 (Molecular Devices, Sunnyvale, Calif.) with at excitation wavelength 485 nm and emission wavelength […].
Fatty acid free-BSA (Sigma A8806): 10 mg/mL in H2O, stored at 4° C.
2×ATX assay buffer: 100 mM Tris, 280 mM NaCl, 10 mM KCl, 2 mM CaCl2, 2 mM MgCl2, pH 7.4.
Human ATX protein: expressed and purified in house. Stored at −80° C.
Substrate FS-3 (Echelon, L-2000): 100 μg in 77.74 μL H2O (1 mM stock), stored at −20° C.
384-well flat bottom plates—Corning #3575.
Compound dilution—All compounds were provided at 10 mM in 100% DMSO. In the first well, 2 μL of 10 mM compound was added to 78 μL of DMSO (1:40 dilution). In subsequent wells 3-fold dilution (total 10 dilutions) were performed.
1×ATX assay buffer was made up with a final concentration of 1 mg/mL fatty acid free-BSA using 2×ATX assay buffer, 10 mg/ml fatty acid free-BSA and ddH2O.
[…]. The final concentration of ATX in the reaction as 1.0 μg/mL.
2 μL per well of compounds was transferred to provide the desired concentration. The plate was centrifuged, then incubated at room temperature for 30 minutes on the shaker.
FS-3 was diluted with 1×ATX assay buffer to a concentration of FS-3 of 10 μM (5×). Then, 10 μL was added per well to the assay plate. The final concentration of FS-3 in the reaction was 2 μM. The plate was centrifuged. The plate was kept shaking at room temperature for 2 hours. Because FS-3 substrate is light sensitive, plates were kept covered and protected from light.
Fluorescence was measured using SpectraMax M5 (excitation at 485 nm/emission at 538 nm, top read).
For the compound `O=C(O)C1CCC(CC(=O)N2CCc3c(C(F)(F)F)nn(Cc4ccccc4F)c3C2)CC1` (mixture of isomers) [Example 6-3, 4-(2-(1-(2-Fluorobenzyl)-3-(trifluoromethyl)-4,5-dihydro-1H-pyrazolo[3,4-c]pyridin-6(7H)-yl)-2-oxoethyl)cyclohexanecarboxylic acid], the IC50 was ≤ 100 nM.

With `O=C(C[C@H]1CC[C@H](C(=O)O)CC1)N1CCc2c(C(F)(F)F)nn(C3CCCCC3)c2C1` [Example 7-19, trans-4-(2-(1-cyclohexyl-3-(trifluoromethyl)-4,5-dihydro-1H-pyrazolo[3,4-c]pyridin-6(7H)-yl)-2-oxoethyl)cyclohexanecarboxylic acid], the IC50 was > 500 nM and ≤ 10000 nM.

With `O=C(O)c1ccc(CC(=O)N2CCc3c(C(F)(F)F)nn(Cc4ccc(Cl)cc4F)c3C2)cc1` [Example 5-5, 4-(2-(1-(4-Chloro-2-fluorobenzyl)-3-(trifluoromethyl)-4,5-dihydro-1H-pyrazolo[3,4-c]pyridin-6(7H)-yl)-2-oxoethyl)benzoic acid], the half-inhibitory concentration (IC50) is ≤ 100 nM.

In the case of `O=C(C[C@H]1CC[C@@H](C(=O)O)CC1)N1CCc2c(C(F)(F)F)nn(C3CCCCC3)c2C1` [Example 7-20, cis-4-(2-(1-cyclohexyl-3-(trifluoromethyl)-4,5-dihydro-1H-pyrazolo[3,4-c]pyridin-6(7H)-yl)-2-oxoethyl)cyclohexanecarboxylic acid], the IC50 was > 500 nM and ≤ 10000 nM.

For `COC(=O)[C@H]1CC[C@H](N(C)C(=O)N2CCc3c(C(F)(F)F)nn(Cc4ccc(Cl)cc4F)c3C2)CC1` [Example 3-4, trans-Methyl 4-(1-(4-chloro-2-fluorobenzyl)-N-methyl-3-(trifluoromethyl)-4,5,6,7-tetrahydro-1H-pyrazolo[3,4-c]pyridine-6-carboxamido)cyclohexanecarboxylate], the IC50 was 100 to 250 nM.

Regarding `O=C(O)C1CN(CC(=O)N2CCc3c(C(F)(F)F)nn(Cc4ccc(Cl)cc4F)c3C2)C1` [Example 13-17, 1-(2-(1-(4-Chloro-2-fluorobenzyl)-3-(trifluoromethyl)-4,5-dihydro-1H-pyrazolo[3,4-c]pyridin-6(7H)-yl)-2-oxoethyl)azetidine-3-carboxylic acid TFA salt], the concentration for half-maximal inhibition (IC50) was ≤ 100 nM.

With `CCOC(=O)[C@H]1CC[C@H](CC(=O)N2CCc3c(C#N)nn(Cc4ccc(F)cc4)c3C2)CC1` [Example 1-43, trans-Ethyl 4-(2-(3-cyano-1-(4-fluorobenzyl)-4,5-dihydro-1H-pyrazolo[3,4-c]pyridin-6(7H)-yl)-2-oxoethyl)cyclohexanecarboxylate], the IC50 was ≤ 100 nM.

As to `O=C(CN[C@H]1CC[C@@H](C(=O)O)CC1)N1CCc2c(C(F)(F)F)nn(Cc3ccc(F)cc3)c2C1` [Example 13-30, cis-4-(2-(1-(4-Fluorobenzyl)-3-(trifluoromethyl)-4,5-dihydro-1H-pyrazolo[3,4-c]pyridin-6(7H)-yl)-2-oxoethylamino)cyclohexanecarboxylic acid TFA salt], the concentration for half-maximal inhibition (IC50) is ≤ 100 nM.

Regarding `CCOC(=O)C1CCC(CC(=O)N2CCc3c(C(F)(F)F)nn(Cc4ccccc4F)c3C2)CC1` (centres unmarked) [Example 1-19, Ethyl 4-(2-(1-(2-fluorobenzyl)-3-(trifluoromethyl)-4,5-dihydro-1H-pyrazolo[3,4-c]pyridin-6(7H)-yl)-2-oxoethyl)cyclohexanecarboxylate], the 50% inhibitory concentration (IC50) is ≤ 100 nM.

Turning to `O=C(O)C1CC2(CC(CC(=O)N3CCc4c(C(F)(F)F)nn(Cc5ccc(Cl)cc5F)c4C3)C2)C1` (centres unmarked) [Example 6-12, 6-(2-(1-(4-Chloro-2-fluorobenzyl)-3-(trifluoromethyl)-4,5-dihydro-1H-pyrazolo[3,4-c]pyridin-6(7H)-yl)-2-oxoethyl)spiro[3.3]heptane-2-carboxylic acid], the IC50 was ≤ 100 nM.

`O=C(CC1CCN2CCCC2C1)N1CCc2c(C(F)(F)F)nn(Cc3ccc(Cl)cc3F)c2C1` (centres unmarked) [Example 1-33, 1-(1-(4-Chloro-2-fluorobenzyl)-3-(trifluoromethyl)-4,5-dihydro-1H-pyrazolo[3,4-c]pyridin-6(7H)-yl)-2-(octahydroindolizin-7-yl)ethanone TFA salt]: the IC50 was ≤ 100 nM.

For the compound `CCOC(=O)[C@H]1CC[C@H](CC(=O)N2CCc3c(C(F)(F)F)nn(CC4CCC(C)CC4)c3C2)CC1` (stereo partly drawn) [Example 1-48, trans-Ethyl 4-(2-(1-((4-methylcyclohexyl)methyl)-3-(trifluoromethyl)-4,5-dihydro-1H-pyrazolo[3,4-c]pyridin-6(7H)-yl)-2-oxoethyl) cyclohexanecarboxylate], the half-maximal inhibitory concentration (IC50) was ≤ 100 nM.

As to `N#CC1CCN(CC(=O)N2CCc3c(C(F)(F)F)nn(Cc4ccc(F)cc4)c3C2)CC1` [Example 12-10, 1-(2-(1-(4-Fluorobenzyl)-3-(trifluoromethyl)-4,5-dihydro-1H-pyrazolo[3,4-c]pyridin-6(7H)-yl)-2-oxoethyl)piperidine-4-carbonitrile TFA salt], the IC50 was ≤ 100 nM.

On to `O=C(O)C1CCN(CC(=O)N2CCc3c(C(F)(F)F)nn(Cc4ccc(F)cc4)c3C2)CC1` [Example 13-1, 1-(2-(1-(4-Fluorobenzyl)-3-(trifluoromethyl)-4,5-dihydro-1H-pyrazolo[3,4-c]pyridin-6(7H)-yl)-2-oxoethyl)piperidine-4-carboxylic acid], for which the IC50 is ≤ 100 nM.

On to `O=C(CC1C2CC3CC1CC(C(=O)O)(C3)C2)N1CCc2c(C(F)(F)F)nn(Cc3ccc(F)cc3)c2C1` (centres unmarked) [Example 5-55], for which the IC50 was ≤ 100 nM.

Regarding `COC(=O)c1ccc(CC(=O)N2CCc3c(C(F)(F)F)nn(Cc4ccc(Cl)cc4F)c3C2)cc1` [Example 1-11, Methyl 4-(2-(1-(4-chloro-2-fluorobenzyl)-3-(trifluoromethyl)-4,5-dihydro-1H-pyrazolo[3,4-c]pyridin-6(7H)-yl)-2-oxoethyl)benzoate], the IC50 was ≤ 100 nM.

As to `O=C(C[C@H]1CC[C@H](C(=O)O)CC1)N1CCc2c(C(F)(F)F)nn(Cc3ccc(F)cc3)c2C1` [Example 7-1, trans-4-(2-(1-(4-Fluorobenzyl)-3-(trifluoromethyl)-4,5-dihydro-1H-pyrazolo[3,4-c]pyridin-6(7H)-yl)-2-oxoethyl)cyclohexanecarboxylic acid], the IC50 was ≤ 100 nM.

As for `O=C(CC1CCN(c2ccncn2)CC1)N1CCc2c(C(F)(F)F)nn(Cc3ccc(F)cc3)c2C1` [Example 18-3, 1-(1-(4-Fluorobenzyl)-3-(trifluoromethyl)-4,5-dihydro-1H-pyrazolo[3,4-c]pyridin-6(7H)-yl)-2-(1-(pyrimidin-4-yl)piperidin-4-yl)ethanone TFA salt], the 50% inhibitory concentration (IC50) was ≤ 100 nM.

On to `O=C(N[C@H]1CC[C@H](C(=O)O)CC1)N1CCc2c(C(F)(F)F)nn(Cc3ccc(Cl)cc3F)c2C1` [Example 5-7, trans-4-(1-(4-Chloro-2-fluorobenzyl)-3-(trifluoromethyl)-4,5,6,7-tetrahydro-1H-pyrazolo[3,4-c]pyridine-6-carboxamido)cyclohexanecarboxylic acid], for which the 50% inhibitory concentration (IC50) was ≤ 100 nM.

Regarding `CS(=O)(=O)NC(=O)[C@H]1CC[C@H](CC(=O)N2CCc3c(C(F)(F)F)nn(Cc4ccc(F)cc4)c3C2)CC1` [Example 19-1, trans-4-(2-(1-(4-Fluorobenzyl)-3-(trifluoromethyl)-4,5-dihydro-1H-pyrazolo[3,4-c]pyridin-6(7H)-yl)-2-oxoethyl)-N-(methylsulfonyl)cyclohexanecarboxamide], the 50% inhibitory concentration (IC50) is ≤ 100 nM.

Consider `O=C(CC1C2CC3CC1CC(C(=O)O)(C3)C2)N1CCc2c(C(F)(F)F)nn(Cc3ccc(Cl)cc3F)c2C1` (centres unmarked) [Example 5-54, 4-(2-(1-(4-Chloro-2-fluorobenzyl)-3-(trifluoromethyl)-4,5-dihydro-1H-pyrazolo[3,4-c]pyridin-6(7H)-yl)-2-oxoethyl) adamantancarboxylic acid], for which the IC50 is ≤ 100 nM.

Staying with this experiment, now noted: IC50, FRET assay, FS-3 2 μM, ATX 1.0 μg/mL, 30 minutes preincubation, 2 hours reaction at room temperature.
As for `O=C(CC1CC2CCC(C1)N2)N1CCc2c(C(F)(F)F)nn(Cc3ccc(Cl)cc3F)c2C1` (centres unmarked) [Example 9-1, 2-(8-Aza-bicyclo[3.2.1]octan-3-yl)-1-(1-(4-chloro-2-fluorobenzyl)-3-(trifluoromethyl)-4,5-dihydro-1H-pyrazolo[3,4-c]pyridin-6(7H)-yl)ethanone TFA salt], the IC50 is ≤ 100 nM.

For the compound `COC(=O)C1CC2COCC(C1)N2CC(=O)N1CCc2c(C(F)(F)F)nn(Cc3ccc(F)cc3)c2C1` (centres unmarked) [Example 12-18, Methyl 9-(2-(1-(4-fluorobenzyl)-3-(trifluoromethyl)-4,5-dihydro-1H-pyrazolo[3,4-c]pyridin-6(7H)-yl)-2-oxoethyl)-3-oxa-9-azabicyclo[3.3.1]nonane-7-carboxylate], the 50% inhibitory concentration (IC50) is ≤ 100 nM.
